Measurements taken from patent US11690818B2, “Drug containing liver targeting specific ligand and thyroid hormone receptor agonist” (priority 2018, dated 2023).

Assays:
db/db mice [1] = assay: Example 4: bone mineral density and body weight of db/db mice; format: in vivo; settings: Kylo-0100 13.5, Kylo-0101 48.4 μg/kg sc daily
Protocol: (§1) The mice needed to adapt to the environment before the experiment, and healthy mice were selected as test animals, and reared in IVC cages at a density of 5 animals/cage with the litter being changed twice a week.
The body weight was weighed twice a week, and the administration was carried out continuously for 21 days. […] The blood was collected by cardiac puncture, left to stand at room temperature for 2 hours, and centrifuged on a low temperature centrifuge at 3000 RPM for 10 minutes to collect serum, which was then stored in a −80° C. refrigerator for later use. The contents of total cholesterol (TC), low-density lipoprotein (LDL) and triglyceride (TG) in the serum were measured on a blood biochemical analyzer.
On the 18th day of the administration, the mice were intraperitoneally injected with the anesthetic (xylazine combined with ketamine, 10 ml/Kg, IP), and the bone mineral density and body fat ratio of the mice were measured on a bone density meter.

db/db mice [2] = assay: Example 4: serum TC, LDL and TG in db/db mice; format: in vivo; settings: subcutaneous injection daily for 21 days, Kylo-0100 13.5, Kylo-0101 48.4, Kylo-0102 43.3, Kylo-0103 43.3 μg/kg, vs saline control group
Protocol: as §1
The body weight was weighed twice a week, and the administration was carried out continuously for 21 days. After the last administration, the mice were fasted overnight for 15-16 hours, sacrificed by CO2 anesthesia. The blood was collected by cardiac puncture, left to stand at room temperature for 2 hours, and centrifuged on a low temperature centrifuge at 3000 RPM for 10 minutes to collect serum, which was then stored in a −80° C. refrigerator for later use. The contents of total cholesterol (TC), low-density lipoprotein (LDL) and triglyceride (TG) in the serum were measured on a blood biochemical analyzer.

Row | SMILES | bone mineral density (BMD) (db/db mice [1]; 18th day of administration, vs saline control group) | effect on the body weight of mice (db/db mice [1]; 21 days) | serum TC level reduction rate (db/db mice [2]) [%] | serum TG level reduction rate (db/db mice [2]) [%] | serum LDL level reduction rate (db/db mice [2]) [%]
1 | N[C@@H](Cc1cc(I)c(Oc2ccc(O)c(I)c2)c(I)c1)C(=O)O [Kylo-0100, triiodothyronine] | significantly lower than that of the saline control group | significant effect | 34.68 | 42.55 | –
2 | CC(=O)NC1C(OCCCCC(=O)NCCCNC(=O)CCOCC(COCCC(=O)NCCCNC(=O)CCCCOC2OC(CO)C(O)C(O)C2NC(C)=O)(COCCC(=O)NCCCNC(=O)CCCCOC2OC(CO)C(O)C(O)C2NC(C)=O)NC(=O)CCCCCNC(=O)[C@H](Cc2cc(I)c(Oc3ccc(O)c(I)c3)c(I)c2)NC(=O)OC(C)(C)C)OC(CO)C(O)C1O (stereo partly shown) [Kylo-0103] | – | – | 44.37 | 43.94 | 15.25
